For data set [1], the system named is Salmonella enterica. Description: Antibacterial activity against Salmonella enterica 349812 assessed as inhibition of visible growth incubated for 16 to 18 hrs by CLSI method. It counts as functional. The settings on record: time 16-18 hrs, read-out: MIC100.
Data set [2] deals with Staphylococcus aureus. Description: Antibacterial activity against methicillin-resistant Staphylococcus aureus clinical isolate M-20 assessed as inhibition of visible growth incubated for 16 to 18 hrs by CLSI method. The settings on record: time 16-18 hrs, read-out: MIC100. Format: functional.
Data set [3] concerns Staphylococcus aureus. Description: Antibacterial activity against methicillin-resistant Staphylococcus aureus clinical isolate M-18 assessed as inhibition of visible growth incubated for 16 to 18 hrs by CLSI method. Format: functional. The settings on record: time 16-18 hrs, read-out: MIC100.
For the next data set, the system named is Bacillus subtilis. Description: Antibacterial activity against Bacillus subtilis assessed as inhibition of visible growth incubated for 16 to 18 hrs by CLSI method. The settings on record: time 16-18 hrs, read-out: MIC100. It counts as functional.
Data set [4] has as its system Staphylococcus aureus. Nature of the data set: Antibacterial activity against methicillin-resistant Staphylococcus aureus clinical isolate M-14 assessed as inhibition of visible growth incubated for 16 to 18 hrs by CLSI method. It counts as functional. The following applies: time 16-18 hrs, read-out: MIC100.
Data set [5] deals with Staphylococcus aureus. Description: Antibacterial activity against methicillin-resistant Staphylococcus aureus clinical isolate M-19 assessed as inhibition of visible growth incubated for 16 to 18 hrs by CLSI method. It counts as functional. The settings on record: time 16-18 hrs, read-out: MIC100.
In data set [6] the test system is Salmonella enterica. Description: Antibacterial activity against Salmonella enterica 8389 assessed as inhibition of visible growth incubated for 16 to 18 hrs by CLSI method. It counts as functional. The settings on record: time 16-18 hrs, read-out: MIC100.
A short description of data set [7]: Selectivity index, HC50 for hemolytic activity in sheep RBC to MIC for antibacterial activity against Staphylococcus aureus ATCC29213. It counts as toxicity. The settings on record: sheep red blood cells (erythrocytes), read-out: Selectivity Index.
For data set [8], the system named is Staphylococcus aureus. Description: Antibacterial activity against methicillin-resistant Staphylococcus aureus clinical isolate M-15 assessed as inhibition of visible growth incubated for 16 to 18 hrs by CLSI method. The settings on record: time 16-18 hrs, read-out: MIC100. Format: functional.
For data set [9], the system named is Staphylococcus aureus. Nature of the data set: Antibacterial activity against methicillin-resistant Staphylococcus aureus clinical isolate M-13 assessed as inhibition of visible growth incubated for 16 to 18 hrs by CLSI method. Format: functional. The settings on record: time 16-18 hrs, read-out: MIC100.
The next data set has as its system Enterococcus faecalis. Nature of the data set: Antibacterial activity against Enterococcus faecalis ATCC29212 assessed as inhibition of visible growth incubated for 16 to 18 hrs by CLSI method. It counts as functional. The following applies: time 16-18 hrs, read-out: MIC100.
Data set [10] deals with Stenotrophomonas maltophilia. Nature of the data set: Antibacterial activity against Stenotrophomonas maltophilia assessed as inhibition of visible growth incubated for 16 to 18 hrs by CLSI method. It counts as functional. The settings on record: time 16-18 hrs, read-out: MIC100.
Data set [11] has as its system Staphylococcus aureus. Nature of the data set: Antibacterial activity against methicillin-resistant Staphylococcus aureus clinical isolate M-11 assessed as inhibition of visible growth incubated for 16 to 18 hrs by CLSI method. Format: functional. The following applies: time 16-18 hrs, read-out: MIC100.
Data set [12] in a line: Hemolytic activity in sheep RBC assessed as hemolysis incubated for 1 hr. It counts as ADME, cell-based, Ovis aries, Erythrocyte. The settings on record: sheep red blood cells (erythrocytes).
Data set [13] has as its system Staphylococcus aureus. Description: Antibacterial activity against methicillin-resistant Staphylococcus aureus clinical isolate M-17 assessed as inhibition of visible growth incubated for 16 to 18 hrs by CLSI method. Format: functional. The following applies: time 16-18 hrs, read-out: MIC100.
In another data set the test system is Escherichia coli. Description: Antibacterial activity against Escherichia coli ATCC25922 assessed as inhibition of visible growth incubated for 16 to 18 hrs by CLSI method. Format: functional. The following applies: time 16-18 hrs, read-out: MIC100.
Data set [14] relates to Staphylococcus aureus. Nature of the data set: Antibacterial activity against methicillin-resistant Staphylococcus aureus clinical isolate M-12 assessed as inhibition of visible growth incubated for 16 to 18 hrs by CLSI method. Format: functional. The settings on record: time 16-18 hrs, read-out: MIC100.
In the next data set the test system is Micrococcus luteus. Description: Antibacterial activity against Micrococcus luteus assessed as inhibition of visible growth incubated for 16 to 18 hrs by CLSI method. Format: functional. The following applies: time 16-18 hrs, read-out: MIC100.
For data set [15], the system named is Staphylococcus aureus. Description: Antibacterial activity against methicillin-resistant Staphylococcus aureus clinical isolate M-16 assessed as inhibition of visible growth incubated for 16 to 18 hrs by CLSI method. Format: functional. The following applies: time 16-18 hrs, read-out: MIC100.
Data set [16] deals with Staphylococcus aureus. Description: Antibacterial activity against Staphylococcus aureus ATCC29213 assessed as inhibition of visible growth incubated for 16 to 18 hrs by CLSI method. It counts as functional. The following applies: time 16-18 hrs, read-out: MIC100.

≈ marks a conversion by molar mass, not a printed value. A value given as a limit tells only on which side of the number the result lay.

In general, HC50 refers to the concentration giving 50% haemolysis. As to `C=CCc1ccc(OCCCC[N+](C)(C)CC(=O)N(CCCC)CCCC)c(-c2ccc(OCCCC[N+](C)(C)CC(=O)N(CCCC)CCCC)c(CC=C)c2)c1.[Br-].[Br-]`, the MIC came out at 8 mg/L in the data set on Salmonella enterica [1]; 8 mg/L in the data set with Staphylococcus aureus [2]; 8 mg/L in the data set on Staphylococcus aureus [3]; 2 mg/L in the data set on Bacillus subtilis; 8 mg/L in the data set on Staphylococcus aureus [4]; 4 mg/L in the data set on Staphylococcus aureus [5]. In addition, the MIC in the data set with Salmonella enterica [6] was 16 mg/L; in the data set on Staphylococcus aureus [8], 8 mg/L; in the data set on Staphylococcus aureus [9] it was 8 mg/L; in the data set with Enterococcus faecalis it was 4 mg/L; in [10], 16 mg/L; in the data set on Staphylococcus aureus [11], 4 mg/L. Besides, the MIC stood at 8 mg/L in the data set with Staphylococcus aureus [13]; 8 mg/L in the data set with Escherichia coli; 8 mg/L with Staphylococcus aureus [14]; 4 mg/L in the data set with Micrococcus luteus; 16 mg/L with Staphylococcus aureus [15]; 2 mg/L in the data set on Staphylococcus aureus [16]. For the same molecule, the selectivity ratio in [7] was determined as 316. For the same molecule, in data set [12], the HC50 at 1 h came out at 633 µg/mL.
Turning to `C=CCc1ccc(O)c(-c2ccc(O)c(CC=C)c2)c1` [HONOKIOL], the MIC in the data set with Salmonella enterica [1] is more than 128 mg/L; in the data set with Bacillus subtilis, 32 mg/L (≈ 120 µM); in the data set on Salmonella enterica [6], more than 128 mg/L; with Enterococcus faecalis it was 64 mg/L (≈ 240 µM); in data set [10], more than 128 mg/L; in the data set on Escherichia coli, more than 128 mg/L. Further, the MIC in the data set with Micrococcus luteus was determined as 32 mg/L (≈ 120 µM); with Staphylococcus aureus [16], 64 mg/L (≈ 240 µM). In addition, the HC50 at 1 h in data set [12] turned out to be 534 µg/mL.
For the molecule `CN(C)c1cc(NC(=O)CNC(C)(C)C)c(O)c2c1C[C@H]1C[C@H]3[C@H](N(C)C)C(O)=C(C(N)=O)C(=O)[C@@]3(O)C(O)=C1C2=O` [TIGECYCLINE], the MIC with Staphylococcus aureus [2] was determined as 0.5 mg/L (≈ 0.854 µM); in the data set on Staphylococcus aureus [3] it was 0.25 mg/L (≈ 0.427 µM); in the data set on Staphylococcus aureus [4] it was 1 mg/L (≈ 1.71 µM); in the data set on Staphylococcus aureus [5], 0.5 mg/L (≈ 0.854 µM); in the data set on Staphylococcus aureus [8], 0.5 mg/L (≈ 0.854 µM); in the data set with Staphylococcus aureus [9], 1 mg/L (≈ 1.71 µM). The MIC with Staphylococcus aureus [11] worked out at 0.5 mg/L (≈ 0.854 µM); in the data set with Staphylococcus aureus [13] it was 0.5 mg/L (≈ 0.854 µM); in the data set on Staphylococcus aureus [14] it was 1 mg/L (≈ 1.71 µM); in the data set on Staphylococcus aureus [15], 0.25 mg/L (≈ 0.427 µM).
Take `C=CCc1ccc(O)c(-c2cc(CC=C)ccc2O)c1` [MAGNOLOL]: the MIC in the data set with Salmonella enterica [1] is more than 128 mg/L; with Bacillus subtilis, 16 mg/L (≈ 60.1 µM); with Salmonella enterica [6], more than 128 mg/L; in the data set with Enterococcus faecalis, 64 mg/L (≈ 240 µM); in [10] it was more than 128 mg/L; in the data set with Escherichia coli, more than 128 mg/L. Moreover, the MIC was found to be 16 mg/L (≈ 60.1 µM) in the data set on Micrococcus luteus and 32 mg/L (≈ 120 µM) in the data set on Staphylococcus aureus [16]. In addition, the concentration for 50% haemolysis (HC50) at 1 h in data set [12] came to 463 µg/mL.
Consider `CN[C@H](CC(C)C)C(=O)N[C@H]1C(=O)N[C@@H](CC(N)=O)C(=O)N[C@H]2C(=O)N[C@H]3C(=O)N[C@H](C(=O)N[C@H](C(=O)O)c4cc(O)cc(O)c4-c4cc3ccc4O)[C@H](O)c3ccc(c(Cl)c3)Oc3cc2cc(c3O[C@@H]2O[C@H](CO)[C@@H](O)[C@H](O)[C@H]2O[C@H]2C[C@](C)(N)[C@H](O)[C@H](C)O2)Oc2ccc(cc2Cl)[C@H]1O` [VANCOMYCIN], for which the MIC was determined as 0.25 mg/L (≈ 0.173 µM) with Bacillus subtilis, 2 mg/L (≈ 1.38 µM) in the data set on Enterococcus faecalis and 0.5 mg/L (≈ 0.345 µM) with Micrococcus luteus.
`C[C@H]1COc2c(N3CCN(C)CC3)c(F)cc3c(=O)c(C(=O)O)cn1c23.C[C@H]1COc2c(N3CCN(C)CC3)c(F)cc3c(=O)c(C(=O)O)cn1c23.O` [LEVOFLOXACIN]: the MIC in the data set with Salmonella enterica [1] was found to be 0.25 mg/L; in the data set with Staphylococcus aureus [2], 1 mg/L; in the data set on Staphylococcus aureus [3], 0.5 mg/L; with Bacillus subtilis it was 0.5 mg/L; with Staphylococcus aureus [4] it was 1 mg/L; in the data set with Staphylococcus aureus [5], 1 mg/L. For the same molecule, the MIC in the data set with Salmonella enterica [6] turned out to be 0.25 mg/L; with Staphylococcus aureus [8], 1 mg/L; in the data set with Staphylococcus aureus [9] it was 5 mg/L; in the data set on Enterococcus faecalis, 0.25 mg/L; in [10] it was 0.5 mg/L; in the data set with Staphylococcus aureus [11], 1 mg/L. In addition, the MIC with Staphylococcus aureus [13] turned out to be 5 mg/L; with Staphylococcus aureus [14], 1 mg/L; in the data set on Micrococcus luteus, 0.25 mg/L; in the data set with Staphylococcus aureus [15], 1 mg/L; in the data set on Staphylococcus aureus [16], 0.5 mg/L.
